Key:
cerebellar stem cells [1] = test: Neuronal differentiation of cerebellar stem cells (TuJ1 positive cells); type: cell-based, rat
Text: Isolation and quantitation of cerebellar stem cells. Neural stem cells were isolated from rat embryos (obtained from Taconic) at the 19th day of gestation (E19). The rats were sacrificed by inhalation of excess carbon dioxide. The abdomen of the rat was cleaned with 70% ethanol and the uterus was removed quickly and aseptically on the bench top. The uterus was placed in ice cold PBS (GIBCO Cat. # 20012-027) in a 200-ml beaker.
The cerebellar tissue was dissected under a microscope according to the following procedure and collected in a 15-ml tube containing HBSS on ice. The dissection should be completed in 1–2 hours (optimally) and the pH of the HBSS should remain neutral. First, the neck of the embryos was severed towards the bottom and the heads were collected in cold PBS. Next, the skin and scalp was removed from neck and head of the embryo. The brain, including the cerebral cortex, midbrain, cerebellum and some of the spinal cord, was removed by dissection under a microscope and transfered into a clean dish with fresh, cold PBS. The cerebellar region was dissected and cleaned of extraneous tissue, including removal of the meninges, and transferred into cold HBSS in a clean 15 ml tube.
The tube containing the cerebellar tissue was centrifuged at 1,000 RPM for 2 min at 15 C., followed by slow, careful aspiration of the HBSS supernatant (care should be taken to avoid aspirating tissue). (It is best to limit the centrifugation steps as much as possible.) About 1 to 3 ml of DMEM/F12/N2 medium (see below) was immediately added to the remaining tissue; the volume of medium depends on the quantity of the dissected tissue. The tissue was gently triturated about 8 to 10 times using a P-1000 Pipetteman until the tissue was dissociated (as evidenced by cloudy solution), then the tube was incubated in the hood for 5 minutes at room temperature to permit settlement of small particles of undissociated tissue. The supernatant was then transferred into a fresh tube, taking care to avoid the smaller particles of tissue that remained at the bottom of the tube.
Plating and expansion of cerebellar stem cells. The triturated cell suspension of E19 rat cerebellum was seeded into pre-coated 10 cm dishes at 2×10^6 cells per dish. This is denoted as the P0 culture (passage 0). The cells were grown in 5 ml of DMEM/F12/N2 supplemented with 25 mg/L insulin and 10 ng/ml bFGF at 37 C, 5% CO2 and 90% humidity.
Cells were fed daily with 10 ng/ml bFGF. The medium was changed one day after the cells were seeded, and thereafter every other day. On about day 4 of the culture, or when cells reached 70% confluence, the culture was passaged (see “Passage of cerebellar stem cells” below) and seeded into 10 cm dishes at an initial density of 2×10^6 cells per dish. This is denoted as the P1 culture (passage 1). The passaged cells at P1 were grown in DMEM/F12/N2 medium supplemented with 25 mg/L insulin and 10 ng/ml bFGF. The medium was changed every other day.
After two days of culture, some cells were passaged into a P2 culture, and some were seeded in 12-well tissue culture plates for experimental use. One ml of DMEM/F12/N2 medium was used per well of a 12-well plate at 2×10^4 cells per well. Experimental treatments were initiated the day after passage.
(§1) Drug treatments. Stem cells obtained as described above were treated with drugs and subjected to differentiation protocols in the second passage. Cells were plated at a density of 1×10^4 cells per well of a 12-well petridish (Falcon).
Drug treatments were started on the next day. […] The WAY 100635 antagonist compound was used simultaneously with buspirone or serotonin in the blocking experiments.

cerebellar stem cells [2] = test: Astrocytic differentiation of cerebellar stem cells (GFAP positive cells); type: cell-based, rat; details: for % GFAP positive cells: Table 2 experiment
Protocol: as §1
Drug treatments were started on the next day. […] The WAY 100635 antagonist compound was used simultaneously with buspirone or serotonin in the blocking experiments. Positive and negative control cultures were those treated with BDNF and FGF alone, respectively.
Cells were treated with the designated concentrations of drugs or combinations thereof, daily, and were fed every alternate day with fresh medium. Experiments were maintained for about 6–10 days in most cases. Cells were fixed on about day 7–11 with a 4% solution of para-formaldehyde (PFA) in PBS, prepared as follows:
Immunofluorescent staining and visualization. After fixation, the PBS was aspirated from the fixed cells and the cells were treated with blocking solution (10% normal goat serum-NGS-Jackson Labs), 0.3% Triton-Sigma, in PBS) to saturate non-specific sites and permeabilize the cells. Following blocking, cells were incubated with the following designated primary antibodies diluted in 5% NGS for 1 hour at room temperatuare: mouse monoclonal anti-MAP-2 (Sigma): 1/250 dilution; mouse monoclonal anti-β tubulin III (Covance): 1/600 dilution; mouse anti-monoclonal glial fibrillary acidic protein (GFAP-ICN Biomedicals): 1/100 dilution.
After the 1 hour incubation, cells were washed three times for 5 min each with PBS followed by incubation of a goat anti-mouse secondary antibody conjugated with stains Cy2 and Cy3 (Jackson Labs) for 1 hr at RT (dilution 1/100 as with the primary antibodies). Following three 5 minute washes with PBS, cells were incubated with the nuclear stain bis-benzimide (Sigma) for 10 min at RT. Cells were then washed 3 times with ultra-pure water and glass coverslips were mounted on them using AquaPolymount (Polysciences, Inc., PA) The mount was allowed to dry and the dishes were stored at 4° C.
For visualization of staining, the mounted cells were viewed under a fluorescent microscope using the appropriate ultra violet filters. An eyepiece with an engraved grid was used to count the cells that stained positive for β tubulin III (TuJ-1), MAP2 or GFAP. The percent of cells positive for a given antigen was estimated by counting nuclei of all cells present in the same field, as the nuclei of the cells stain blue with the bis benzimide. Five fields were counted per treatment condition, and averages with standard deviations were calculated.
To evaluate whether buspirone affected differentiation of neural stem cells into other neural cell types such as astrocytes, the buspirone-treated cerebellar cell cultures described above were subjected to immunofluorescence using a monoclonal antibody against an astrocyte-specific marker, glial fibrillary acidic protein, or GFAP.

## O=C1CC2(CCCC2)CC(=O)N1CCCCN1CCN(c2ncccn2)CC1 [buspirone, 8-[4-[4-(2-pyrimidinyl)-1-piperazinyl]butyl]-8-azaspiro[4,5]decane-7,9-dione]
Cerebellar stem cells [1]; 10 nM, Table 2 experiment
  % Tuj 1 positive cells: 40.0 ± 3.7%
Cerebellar stem cells [1]; 10 nM, Table 3 experiment
  % Tuj 1 positive cells: 30.7 ± 2.33%
Cerebellar stem cells [1]; 30 nM, Table 2 experiment
  % Tuj 1 positive cells: 41.2 ± 6.7%
Cerebellar stem cells [1]; 30 nM, Table 3 experiment
  % Tuj 1 positive cells: 37.4 ± 2.6%
Cerebellar stem cells [1]; 100 nM, Table 2 experiment
  % Tuj 1 positive cells: 33.1 ± 2.6%
Cerebellar stem cells [1]; 100 nM, Table 3 experiment
  % Tuj 1 positive cells: 46.6 ± 3.8%
Cerebellar stem cells [1]; 100 nM, Table 5 experiment
  % TuJ1 positive cells: 54.4 ± 2.1%
Cerebellar stem cells [1]; 300 nM, Table 2 experiment
  % Tuj 1 positive cells: 26.1 ± 3.9%
Cerebellar stem cells [1]; 500 nM, Table 4 experiment
  % TuJ1 positive cells: 56.8 ± 7.1%
Cerebellar stem cells [1]; 500 nM, Table 5 experiment
  % TuJ1 positive cells: 64.8 ± 2.1%
Cerebellar stem cells [1]; 1000 nM, Table 2 experiment
  % Tuj 1 positive cells: 21.9 ± 3.9%
Cerebellar stem cells [1]; 1000 nM, Table 3 experiment
  % Tuj 1 positive cells: 40.3 ± 2.8%
Cerebellar stem cells [1]; 10 μM, Table 5 experiment
  % TuJ1 positive cells: 67.9 ± 10.2%
Cerebellar stem cells [1]; 100 μM, Table 5 experiment
  % TuJ1 positive cells: 68.5 ± 6.5%
Cerebellar stem cells [1]; FIG. 1, lane 4
  concentration inducing the highest percentage of neuronal differentiation: ~100 nM
Cerebellar stem cells [1]; FIG. 1, lanes 2–5, dosage range 10 nM to 300 nM, about 6 days
  neuronal differentiation of neural stem cells (percent of neurons, TuJ1 positive): 40–55%
Cerebellar stem cells [1]; FIG. 2, lane 3, buspirone 500 nM, untreated control less than 20%
  differentiation of neurons: 50%
Cerebellar stem cells [1]; concentrations from 10 nm to 100 um, Tables 2–5
  promotion of neuronal differentiation of neural stem cells (in words): effective at promoting neuronal differentiation
Cerebellar stem cells [2]; 10 nM
  % GFAP positive cells: 26.3 ± 3.7%
Cerebellar stem cells [2]; 30 nM to 1 μM, FIG. 1B and FIG. 4
  effect on astrocytic differentiation: does not have any appreciable reproducible effects
Cerebellar stem cells [2]; 30 nM
  % GFAP positive cells: 12.9 ± 1.9%
Cerebellar stem cells [2]; 100 nM
  % GFAP positive cells: 20.6 ± 5.2%
Cerebellar stem cells [2]; 300 nM
  % GFAP positive cells: 21.4 ± 4.6%
Cerebellar stem cells [2]; 1000 nM
  % GFAP positive cells: 27.0 ± 9.0%

Reference: patent US7132287B2, “Method for neural stem cell differentiation using 5HT-1A agonists” (Psychiatric Genomics, Inc., priority 2001, dated 2006)
